Values of other authors, collected in patent US20220257541A1, “Lacosamide for the Treatment of ADD/ADHD” (priority 2019, published 2022).

Columns and labels:
[1] = system: voltage-gated sodium channels; conditions: cited from earlier work
[2] = system: children who take methylphenidate; conditions: cited from earlier work

SMILES | mechanism of action [1] | proportion of children who develop symptoms of obsessive-compulsive behaviour [2]
NC(=O)c1cn(Cc2c(F)cccc2F)nn1 [rufinamide, 1-[(2,6-difluorophenyl)methyl]-1H-1,2,3-triazole-4 carboxamide] | act through voltage-gated sodium channels | 
COC(=O)C(c1ccccc1)C1CCCCN1 (centres unmarked) [methylphenidate] |  | one third
